In patent publication US20100016434A1, “Inhibitors of Egln3 Activity for the Treatment of Neurodegenerative Disorders” (priority 2005, published 2010):

How the values were obtained:
HIF2α = experiment: Immunoblot analysis of HIF2α in 786-O cells; format: cell-based, human; details: 786-O cells treated with PKC inhibitor
Excerpt: (A and B) Immunoblot analysis of 786-O cells treated with the PKC inhibitor GF109230X.
Twenty μg of nuclear extract per lane, prepared using a NE-PER extraction kit (Pierce Biotechnology, Inc., Rockford Ill.) and measured by the Bradford assay, was resolved on 10% or 12% SDS-PAGE gels and transferred to nitrocellulose membrane (Bio-Rad Laboratories, Hercules Calif.) to detect endogenous JunB and HIF2α. After blocking in TBS with 5% nonfat milk, the membranes were probed with anti-JunB monoclonal antibody (C-11; Santa Cruz Biotechnology, Inc., Santa Cruz Calif.) or anti-HIF2α rabbit polyclonal antibody (NB100-122; Novus Biologicals, Inc., Littleton Colo.). Bound protein was detected with a Horseradish Peroxidase (HRP)-conjugated secondary antibodies and an enhanced chemiluminesence kit (Pierce).

JunB = experiment: Immunoblot analysis of JunB in 786-O renal carcinoma subclones; format: cell-based, human; details: 786-O cells treated with PKC inhibitor
Method: FIG. 2: (A) Immunoblot analysis of 786-O VHL(−/−) renal carcinoma cells retrovirally infected to produce the indicated short hairpin RNAs (shRNA) or wild-type pVHL (VHL). (B) Immunoblot analyis of RC3 cells and WT7 cells; where indicated, WT7 cells were treated with DFO or infected to produce HIF2α P405A; P531A or with empty retrovirus. (C) Immunoblot analysis of indicated 786-O subclones grown in presence or absence of DFO; (*)=non-specific band. (D) Immunoblot analysis of A498 and 786-O cells transfected to produce the indicated HA-pVHL variants or with empty vector. Arrow indicates a slowly migrating form of aPKC. (E) In vitro aPKC activity. Anti-aPKC immunoprecipitates of the indicated cell lines under antibody excess conditions were incubated with a peptidic aPKC substrate in the presence of ^32P-γ-ATP. Shown are incorporated ^32P values. (F) Immunoblot analysis of 786-O cells treated with the PKC inhibitor GF109230X.
Twenty μg of nuclear extract per lane, prepared using a NE-PER extraction kit (Pierce Biotechnology, Inc., Rockford Ill.) and measured by the Bradford assay, was resolved on 10% or 12% SDS-PAGE gels and transferred to nitrocellulose membrane (Bio-Rad Laboratories, Hercules Calif.) to detect endogenous JunB and HIF2α. […] Bound protein was detected with a Horseradish Peroxidase (HRP)-conjugated secondary antibodies and an enhanced chemiluminesence kit (Pierce).

PC12 cells [1] = experiment: Apoptosis after NGF withdrawal in differentiated PC12 cells (GFP-Histone nuclei scoring); format: cell-based, rat
Method: FIG. 5: (A) Anti-SM20/EGLN3 immunoblot analysis of PC12 cells treated as in FIG. 3A. SM-20 in vitro translate included in lane 1 as a control. (B and D) Representative fluorescent photomicrographs (B) and anti-HA immunoblot analysis (D) of PC12 cells transfected to produce GFP-Histone and the indicated HA-EGLN species. White arrows in […] indicate apoptotic nuclei. (C) Percent of GFP-positive nuclei with apoptotic changes after transfection with 0.5 or 1.0 μg of the indicated plasmids. (E and F) Representative fluorescent photomicrographs of PC12 cells transfected with the indicated siRNAs and a plasmid encoding GFP-Histone followed by treatment with NGF for […] (‘+NGF’), which was then withdrawn for 24 hours (‘−NGF’). White arrows indicate apoptotic nuclei, which were quantitated in (E) as percent of GFP-positive nuclei. (G and H) Representative fluorescent photomicrographs (F) of PC12 cells transfected to produce GFP-Histone and treated with NGF for 5 days (‘+NGF’), which was then withdrawn for 24 hours (‘−NGF’). Where indicated cells were exposed to 100 μM CoCl2 or 1% hypoxia during NGF withdrawal. White arrows indicate apoptotic nuclei, which were quantitated in (G) as % of GFP-positive nuclei.
(§1) (B) FACS profiles of PC12 cells stained with the ROS-sensitive dye CM-H2DCFDA after treatment with the indicated SDH inhibitors or the ROS-inducing agent Rotenone (Ro; 20 μM) in the presence or absence of the ROS scavenger ascorbic acid (AA; 100 μM). C=control. (C and D) Representive fluorescent photomicrographs of PC12 cells (C) transfected to produce GFP-Histone alone (GFP-His) or GFP-Histone and EGLN3 (EGLN3). The SDH inhibitors 3-NPA (300 t-IM), MA (300 I-LM), or TTFA (200 ˜M) were added where indicated. White arrows indicate apoptotic nuclei, which were quantitated in (D) as percent of GFP-positive nuclei. (E) Immunoblot analysis of PC12 cells treated with the indicated chemicals or vehicle (C). (F) Percent of GFP-positive PC12 nuclei undergoing apoptosis after transfection to produce GFP-Histone alone (GFP-His) or GFP-Histone and EGLN3 (EGLN3) in the presence or absence of SDH inhibitors. 100 μM AA was also present where indicated. (G) Percent of GFP-positive PC 12 nuclei undergoing apoptosis after transfection with the indicated siRNAs and a plasmid encoding GFP-Histone followed by treatment with NGF for 5 days (‘+NGF’), which was then withdrawn for 24 hours (‘−NGF’). […]
(§2) Undifferentiated PC12 cells were plated onto collagen-coated 6-well plates 1 day before transfection with LIPOFECTAMINE 2000 reagent (Invitrogen) according to the manufacturer's instructions. […] Nuclei that were condensed or fragmented were scored as apoptotic. Approximately 400 cells were scored for each set of conditions and all assays were performed in triplicate.

EGLN3 = target: T1, EGLN3 (Homo sapiens, UniProt Q9H6Z9); experiment: EGLN3 hydroxylation assay: HIF1α-derived peptide, capture of 35S-labeled pVHL; format: biochemical; details: increasing amount of succinate; EGLN3 in vitro translate
T1 construct: HA; made in house; host or cells: in vitro translation in reticulocyte lysate
T1 sequence (Q9H6Z9 whole entry): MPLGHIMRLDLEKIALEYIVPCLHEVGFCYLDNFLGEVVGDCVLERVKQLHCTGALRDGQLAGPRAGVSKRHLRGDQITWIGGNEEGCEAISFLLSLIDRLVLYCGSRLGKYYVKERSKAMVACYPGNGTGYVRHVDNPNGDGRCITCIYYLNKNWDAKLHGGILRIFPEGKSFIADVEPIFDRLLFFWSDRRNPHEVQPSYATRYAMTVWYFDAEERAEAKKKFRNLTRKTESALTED

PC12 cells [2] = experiment: EGLN3-induced apoptosis in transfected undifferentiated PC12 cells (GFP-Histone nuclei scoring); format: cell-based, rat; details: coadministration of 100 μM AA with SDH inhibitors
Method: as §1, with “indicated.” for “indicated. (G) Percent of GFP-positive PC 12 nuclei undergoing apoptosis after transfection with the indicated siRNAs and a plasmid encoding GFP-Histone followed by treatment with NGF for 5 days (‘+NGF’), which was then withdrawn for 24 hours (‘−NGF’).”
as §2, with “triplicate. […]” for “triplicate.”

PC12 cells [3] = experiment: ROS analysis by FACS with CM-H2DCFDA; format: cell-based, rat; details: 100 μM AA
Method: (B) FACS profiles of PC12 cells stained with the ROS-sensitive dye CM-H2DCFDA after treatment with the indicated SDH inhibitors or the ROS-inducing agent Rotenone (Ro; 20 μM) in the presence or absence of the ROS scavenger ascorbic acid (AA; 100 μM). C=control. (C and D) Representive fluorescent photomicrographs of PC12 cells (C) transfected to produce GFP-Histone alone (GFP-His) or GFP-Histone and EGLN3 (EGLN3). The SDH inhibitors 3-NPA (300 t-IM), MA (300 I-LM), or TTFA (200 ˜M) were added where indicated. White arrows indicate apoptotic nuclei, which were quantitated in (D) as percent of GFP-positive nuclei. (E) Immunoblot analysis of PC12 cells treated with the indicated chemicals or vehicle (C). (F) Percent of GFP-positive PC12 nuclei undergoing apoptosis after transfection to produce GFP-Histone alone (GFP-His) or GFP-Histone and EGLN3 (EGLN3) in the presence or absence of SDH inhibitors. 100 μM AA was also present where indicated. (G) Percent of GFP-positive PC 12 nuclei undergoing apoptosis after transfection with the indicated siRNAs and a plasmid encoding GFP-Histone followed by treatment with NGF for 5 days (‘+NGF’), which was then withdrawn for 24 hours (‘−NGF’).
PC12 cells were incubated for 1 hr with 5 μM CM-H2DCFDA (Molecular Probes), harvested, resuspended at 10^6 cells/ml in PBS supplemented with 7% FBS, and analyzed by FACS.

[4] = SDH inhibitors 300 μM, NGF withdrawn for 24 hours

**Q.** For `CN(C)CCCn1cc(C2=C(c3c[nH]c4ccccc34)C(=O)NC2=O)c2ccccc21` [GF109203X], which HIF2α levels (HIF2α) is on record?
**A.** does not affect

**Q.** What about the JunB levels (JunB) of the same compound?
**A.** downregulated

**Q.** With `O=C(O)CCC(=O)C(=O)O` [2-OG, 2-oxoglutarate] as the compound, how does the “Apoptosis after NGF withdrawal in SDH D siRNA-transfected cells” value (PC12 cells [1]; 0.5 mM 2-oxoglutarate added to the media 24 hours before NGF withdrawal) read?
**A.** partially restored

**Q.** With `O=C(O)CCC(=O)O` [succinate] as the compound, how does the EGLN3 hydroxylase activity (EGLN3) read?
**A.** diminished

**Q.** `[Cl][Co][Cl]` [cobalt chloride] was tested. Which “Apoptosis after NGF withdrawal” value (PC12 cells [1]; 100 μM CoCl2 during NGF withdrawal, 24 hours) did it give?
**A.** decreased

**Q.** Which “Apoptosis after NGF withdrawal” value (PC12 cells [1]; [4]) does the source give for `O=C(O)CC[N+](=O)[O-]` [3-NPA, 3-nitroproprionic acid] here?
**A.** diminished apoptosis

**Q.** How did the “Effect on the action of the SDH inhibitors on EGLN3-induced apoptosis” value (PC12 cells [2]) turn out when `O=C1O[C@H]([C@@H](O)CO)C(O)=C1O` [ascorbic acid] was run?
**A.** failed to mitigate

**Q.** What about the “ROS induction by SDH inhibitors” value (PC12 cells [3]) of the same compound?
**A.** blocking ROS induction

**Q.** For `O=C(O)CC(=O)O` [MA, malonic acid], which “Apoptosis after NGF withdrawal” value (PC12 cells [1]; [4]) is on record?
**A.** diminished apoptosis
